Holding throughout (format): in vitro ADME
The target in one series is CYP2C9 (Homo sapiens, UniProt P11712). The experiment in a line: CYP inhibition in human liver microsomes, CYP2C9. On the set-up: incubated with human liver microsomes; tissue Eurofins ITEMG232; host or cells: human liver microsomes. The settings on record: probe diclofenac, substrate diclofenac, read-out: CYP2C9 Inh %. In a few lines:
(§1)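 For CYP2D6 inhibition, dextromethorphan was the substrate; diclofenac served for CYP2C9, while CYP2C8 activity was followed with paclitaxel and amodiaquine. Formation of each metabolite at incubation end was recorded as HPLC-MS/MS peak area.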
(Liver microsomes are a subcellular fraction often used to study metabolism.)

The target in a further series is T1, CYP2B6 (Homo sapiens, UniProt P20813).
T1 construct: incubated with human liver microsomes; tissue Eurofins ITEMG232; host or cells: human liver microsomes
T1 sequence (P20813 1-491): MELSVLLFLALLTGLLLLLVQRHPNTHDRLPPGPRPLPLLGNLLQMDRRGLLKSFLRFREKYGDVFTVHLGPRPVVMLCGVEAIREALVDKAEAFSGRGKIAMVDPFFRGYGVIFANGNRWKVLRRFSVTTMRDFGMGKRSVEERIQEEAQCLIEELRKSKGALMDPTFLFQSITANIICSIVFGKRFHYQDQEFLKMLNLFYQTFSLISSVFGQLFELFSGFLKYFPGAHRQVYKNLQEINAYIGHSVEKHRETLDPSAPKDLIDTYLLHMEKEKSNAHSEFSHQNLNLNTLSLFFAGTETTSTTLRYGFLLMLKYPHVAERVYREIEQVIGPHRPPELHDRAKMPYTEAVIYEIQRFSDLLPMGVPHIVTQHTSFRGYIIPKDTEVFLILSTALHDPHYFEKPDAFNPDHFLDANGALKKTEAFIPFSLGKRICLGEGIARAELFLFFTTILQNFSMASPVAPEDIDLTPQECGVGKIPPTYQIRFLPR
The experiment in a line: CYP inhibition in human liver microsomes, CYP2B6. The following applies: probe bupropion, substrate bupropion, read-out: CYP2B6 Inh %. As to the method: (§2) The following substrates were used: CYP1A phenacetin, CYP2B6 bupropion, CYP2C8 paclitaxel and amodiaquine, CYP2C9 diclofenac, CYP2C19 omeprazole, CYP2D6 dextromethorphan, CYP3A midazolam and testosterone. At the end of the incubation, the formation of metabolite was monitored by HPLC-MS/MS as the peak area response.

Another series has as its target T2, CYP2C19 (Homo sapiens, UniProt P33261).
T2 construct: incubated with human liver microsomes; tissue Eurofins ITEMG232; host or cells: human liver microsomes
Nature of the series: CYP inhibition in human liver microsomes, CYP2C19. The following applies: probe omeprazole, substrate omeprazole, read-out: CYP2C19 Inh %. As to the method:
as §2

The next series deals with T3, CYP2D6 (Homo sapiens, UniProt P10635).
T3 construct: incubated with human liver microsomes; tissue Eurofins ITEMG232; host or cells: human liver microsomes
T3 sequence (P10635 whole entry): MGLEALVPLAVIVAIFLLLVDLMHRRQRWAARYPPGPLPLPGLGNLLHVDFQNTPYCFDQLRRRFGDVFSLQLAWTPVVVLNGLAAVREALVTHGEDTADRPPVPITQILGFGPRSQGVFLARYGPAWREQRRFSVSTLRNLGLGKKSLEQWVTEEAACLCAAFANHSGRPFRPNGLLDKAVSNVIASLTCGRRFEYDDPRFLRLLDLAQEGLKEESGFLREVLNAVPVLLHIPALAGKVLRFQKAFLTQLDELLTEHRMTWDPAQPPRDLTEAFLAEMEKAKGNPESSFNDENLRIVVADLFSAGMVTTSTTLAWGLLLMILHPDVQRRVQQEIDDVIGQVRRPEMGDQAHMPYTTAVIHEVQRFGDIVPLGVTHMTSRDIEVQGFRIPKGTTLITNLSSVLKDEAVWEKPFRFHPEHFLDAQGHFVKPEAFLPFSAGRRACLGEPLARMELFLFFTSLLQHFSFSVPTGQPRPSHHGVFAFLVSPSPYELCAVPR
Nature of the series: CYP inhibition in human liver microsomes, CYP2D6. The following applies: probe dextromethorphan, substrate dextromethorphan, read-out: CYP2D6 Inh %. In a few lines:
as §1

Chain of CYP2C9 (P11712 whole entry): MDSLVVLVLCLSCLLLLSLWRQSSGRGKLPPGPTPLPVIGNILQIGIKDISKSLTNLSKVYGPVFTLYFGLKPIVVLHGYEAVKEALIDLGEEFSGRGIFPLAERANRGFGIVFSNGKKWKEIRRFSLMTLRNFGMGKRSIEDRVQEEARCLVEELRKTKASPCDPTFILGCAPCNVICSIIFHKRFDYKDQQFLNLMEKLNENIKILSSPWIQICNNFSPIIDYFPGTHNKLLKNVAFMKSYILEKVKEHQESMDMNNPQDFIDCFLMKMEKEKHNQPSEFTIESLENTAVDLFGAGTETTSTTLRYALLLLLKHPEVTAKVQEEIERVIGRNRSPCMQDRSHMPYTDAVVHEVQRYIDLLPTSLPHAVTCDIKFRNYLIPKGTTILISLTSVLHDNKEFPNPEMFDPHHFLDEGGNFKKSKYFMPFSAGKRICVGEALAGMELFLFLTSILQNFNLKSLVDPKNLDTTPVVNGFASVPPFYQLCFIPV
T2 sequence (P33261 whole entry): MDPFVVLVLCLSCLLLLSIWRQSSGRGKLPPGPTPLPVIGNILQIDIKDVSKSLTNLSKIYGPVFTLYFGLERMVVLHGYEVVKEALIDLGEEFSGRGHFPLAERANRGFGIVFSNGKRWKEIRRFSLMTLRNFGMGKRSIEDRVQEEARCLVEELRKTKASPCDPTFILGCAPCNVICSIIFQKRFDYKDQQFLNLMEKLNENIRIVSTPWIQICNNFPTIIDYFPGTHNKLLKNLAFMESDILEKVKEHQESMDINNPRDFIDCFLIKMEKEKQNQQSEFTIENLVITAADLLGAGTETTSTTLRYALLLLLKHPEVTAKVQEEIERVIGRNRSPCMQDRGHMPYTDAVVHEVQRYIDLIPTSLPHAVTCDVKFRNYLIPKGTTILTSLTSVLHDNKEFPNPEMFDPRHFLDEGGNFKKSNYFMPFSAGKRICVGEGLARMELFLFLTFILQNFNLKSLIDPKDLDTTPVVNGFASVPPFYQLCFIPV

For the compound `CC(C)Cc1cc(-c2ccc(Cn3ccnc3C(C)C)c(F)c2)c(S(=O)(=O)NC(=O)NCCC(F)(F)F)s1.O=C(O)C(F)(F)F` [Example 41, 1-{[3-(3-fluoro-4-{[2-(propan-2-yl)-1H-imidazol-1-yl]methyl}phenyl)-5-(2-methylpropyl)thiophen-2-yl]sulfonyl}-3-(3,3,3-trifluoropropyl)urea trifluoroacetic acid], the inhibition at 10 µM on CYP2C9 stood at 58%; on CYP2B6, 30%; on CYP2C19, 53%; on CYP2D6, 12%.
